{
  "source": "patent US8329693B2",
  "about": "“Method for the prevention of thromboembolic disorders” (Orion Corporation, priority 2004, dated 2012)",
  "key": {"salt sensitive rat model": {"tested_on": "salt sensitive rat model", "assay": "Stroke in salt sensitive rat model (summary statements)", "assay_type": "in vivo", "conditions": "preventative treatment"}, "[1]": {"tested_on": "Dahl SS rats on high-salt diet", "assay": "Mortality in Dahl salt-sensitive rat stroke model (Experiment 2)", "assay_type": "in vivo", "conditions": "High-Salt diet + Levosimendan 1 mg/kg/day (2 mg/l in drinking water), 7 weeks, n=20; vehicle group 70%", "procedure": "(§1) Effect of levosimendan on the incidence of cerebral strokes in Dahl salt-sensitive rat stroke model was studied using Magnetic Resonance Imaging (MRI) and behavioural tests (Neuroscore and Functional Observational Battery (FOB)).\n(§2) Dahl SS rats were divided into three treatment groups: High-Salt diet+vehicle (n=20), High-Salt diet+Levosimendan 1 mg/kg/day (n=20), and Normal-Salt diet control (n=4). High salt diet contained 7% of NaCl in commercial low salt diet. Feeding with the high-salt diet was started at the age of 6 weeks and continued 7 weeks until the end of the study. Levosimendan was administered via drinking water (2 mg/l of levosimendan in drinking water). The administration was started at the same time as the high-salt diet and continued until the end of the study. The consumption of drinking water and food as well as the body weight and general health of the animals were monitored. MRI was performed once-a-week during the weeks 2-8. FOB and 7-point Neuroscore testing were performed once-a-week during the weeks 1-3 and twice-a-week during weeks the 4-8."}, "[2]": {"tested_on": "Dahl salt-sensitive rats on high salt diet", "assay": "Effects on mortality in salt sensitive rat model (Experiment 1)", "assay_type": "in vivo", "excerpt": "Effect of levosimendan on early stage mortality of Dahl salt-sensitive rats was studied. Dahl salt-sensitive rats on high salt diet develop hypertension and increased mortality. In the early stages of hypertension the incidence of death is almost entirely due to stroke and sudden death. See Qu, P. et al., Hypertens. Res., 2000; 23:613-623.\n6-week-old male Dahl salt-sensitive rats (SS/JrHsd) received the following diet and drug regimens for 7 weeks: 1) Dahl SS controls on high salt diet, 2) Dahl SS rats on high salt diet+high-dose levosimendan (10 mg/l of levosimendan in drinking water), 3) Dahl SS rats on high salt diet+low-dose levosimendan (1 mg/l of levosimendan in drinking water) and 4) Dahl SS controls on low salt diet. High salt diet was produced by adding NaCl to commercial low salt diet.\nOnly 38% (9/24) of rats on high salt diet survived the 7-week follow up period."}, "[3]": {"tested_on": "Dahl SS rats on high-salt diet", "assay": "Ex vivo MRI of post-mortem brain, Dahl salt-sensitive rat stroke model", "assay_type": "in vivo", "procedure": "as §2\nFor ex-vivo imaging post-mortem brain was removed from the skull and immersed into 4% formalin for 48 h and thereafter stored in 0.1 M PBS. The brain was embedded in perfluoropolyether and MRI was performed in 9.4 T magnet (Oxford) interfaced to a SMIS-console. The interpretation of hyperintensity and signal void areas follows that presented for in vivo studies. In ex vivo studies only mature lesions with significant oedema and destructed tissue structure can be detected. Initial T2 contrast, which may be detectable in vivo, may not be visible in ex vivo studies. The findings in ex vivo studies support the idea that most of the ischemic lesions were associated with hemorrhage. […] Abbreviations: LS, levosimendan."}, "[4]": {"tested_on": "Dahl SS rats on high-salt diet", "assay": "Seven-point Neuroscore test, Dahl salt-sensitive rat stroke model", "assay_type": "in vivo", "conditions": "throughout the study (weeks 1-8); grade 6 = normal", "procedure": "as §2\n(§3) Functional observational battery (FOB) and Neuroscore testing were performed once-a-week during weeks 1-3 and twice-a-week during weeks 4-8.\nA seven-point neuroscore test was used to assess motor and behavioral deficits (modified from Zausinger et al. Brain Res. 863:94-105, 2000). The neurological test was conducted by an investigator blinded to the treatment status of the rats. The seven-point scale was as follows:\nGrade 6: Normal extension of both forelimbs towards the floor when lifted gently by the tail. […]"}, "[5]": {"tested_on": "Dahl SS rats on high-salt diet", "assay": "In vivo T2-weighted MRI of brain lesions, Dahl salt-sensitive rat stroke model", "conditions": "for share of animals with T2-lesion volume 0 mm^3 / share of animals with T2-lesion volume 1-50 mm^3 / share of animals with T2-lesion volume 51-100 mm^3 / share of animals with T2-lesion volume >200 mm^3: in vivo MRI", "procedure": "as §1, §2\nDiffusion and T2-weighted MRI using Varian Inova console interfaced to a 4.7 T horizontal magnet (Magnex Scientific Ltd.) was performed once-a-week on halothane-anesthetized rats. T2-weighted imaging and quantitative diffusion imaging were used to determine lesion size and to characterize plausible ischaemic lesions in Dahl SS rats. Typical lesions were heterogeneous and consisted of several different regions with different MRI characteristics. Hyperintensity in T2-weighted imaging was found in practically all animals with detectable abnormalities. This can be interpreted as oedematous tissue, which is typical for ischaemic tissue and is, in general, detectable starting at ˜12-24 h after occlusion of the feeding vessel. […] At the high magnetic field (4.7 T) used in this study, any ferromagnetic substance causes local disruption in magnetic field homogeneity which destroys the signal in T2-weighted imaging. This is a characteristic MRI feature for hemorrhage as haemoglobin in blood contains Fe. Thus almost all lesions detected in this study can be characterized to be associated with hemorrhage."}, "[6]": {"tested_on": "Dahl SS rats on high-salt diet", "assay": "Functional observational battery (FOB), Dahl salt-sensitive rat stroke model", "assay_type": "in vivo", "conditions": "weeks 1-8, levosimendan 1 mg/kg/day", "procedure": "as §2, §3\nAll rats were observed using standardized procedures. The procedures included observation of rats in the home cage, while moving in open arena and through manipulative tests. The measures included:\n(1) Home-Cage Measurements:\nBody position, Respiration, Vocalization and Palpebral closure.\n(2) Hand-Held Observations: […]"}},
  "note": "Entries after “also recorded” stand apart in the source; their conditions may differ.",
  "data": [
    {"smiles": "CC1CC(=O)NN=C1c1ccc(NN=C(C#N)C#N)cc1", "note": "(single isomer, unassigned; (-)) [levosimendan, (−)-enantiomer of [[4-(1,4,5,6-tetrahydro-4-methyl-6-oxo-3-pyridazinyl)phenyl]hydrazono]propanedinitrile]", "values": [
      {"measurement": "incidence and volume of brain lesions, behavioural disorders and mortality associated with stroke", "setting": "salt sensitive rat model", "value": "reduces and/or postpones; also recorded: markedly reduce"},
      {"measurement": "mortality during the study", "setting": "[1]", "value": 5, "unit": "%"},
      {"measurement": "early stage mortality of salt-sensitive rats", "setting": "[2]; 7 weeks, levosimendan in drinking water", "value": "markedly reduced"},
      {"measurement": "rats that died during the 7-week follow up period", "setting": "[2]; high-dose levosimendan, 10 mg/l in drinking water", "value": "three out of 12"},
      {"measurement": "rats that died during the 7-week follow up period", "setting": "[2]; low-dose levosimendan, 1 mg/l in drinking water, n=12", "value": "None"},
      {"measurement": "Incidence of T2 changes, class 0", "setting": "[3]; class 0, levosimendan 1 mg/kg/day", "value": 80, "unit": "%"},
      {"measurement": "Incidence of T2 changes, class 1-50", "setting": "[3]; class 1-50, levosimendan 1 mg/kg/day", "value": 20, "unit": "%"},
      {"measurement": "Incidence of T2 changes, class 51-100", "setting": "[3]; class 51-100, levosimendan 1 mg/kg/day", "value": 0, "unit": "%"},
      {"measurement": "Incidence of T2 changes, class >200", "setting": "[3]; class >200, levosimendan 1 mg/kg/day", "value": 0, "unit": "%"},
      {"measurement": "seven-point Neuroscore", "setting": "[4]", "value": "scored maximum scores throughout the study"},
      {"measurement": "noticeable T2-weighted MRI changes", "setting": "[5]; 6th week of the study, more than 50% of vehicle treated animals had changes", "value": "no changes were observed"},
      {"measurement": "animals with detectable T2-weighted MRI changes", "setting": "[5]; at the last MRI measurement, 85% of vehicle treated animals", "value": 10, "unit": "%"},
      {"measurement": "share of animals with T2-lesion volume 0 mm^3", "setting": "[5]; week 2, lesion volume class 0 mm^3, levosimendan 1 mg/kg/day in drinking water", "value": 95, "unit": "%"},
      {"measurement": "share of animals with T2-lesion volume 1-50 mm^3", "setting": "[5]; week 2, lesion volume class 1-50 mm^3, levosimendan 1 mg/kg/day in drinking water", "value": 5, "unit": "%"},
      {"measurement": "share of animals with T2-lesion volume 51-100 mm^3", "setting": "[5]; week 2, lesion volume class 51-100 mm^3, levosimendan 1 mg/kg/day in drinking water", "value": 0, "unit": "%"},
      {"measurement": "share of animals with T2-lesion volume >200 mm^3", "setting": "[5]; week 2, lesion volume class >200 mm^3, levosimendan 1 mg/kg/day in drinking water", "value": 0, "unit": "%"},
      {"measurement": "share of animals with T2-lesion volume 0 mm^3", "setting": "[5]; week 3, lesion volume class 0 mm^3, levosimendan 1 mg/kg/day in drinking water", "value": 100, "unit": "%"},
      {"measurement": "share of animals with T2-lesion volume 1-50 mm^3", "setting": "[5]; week 3, lesion volume class 1-50 mm^3, levosimendan 1 mg/kg/day in drinking water", "value": 0, "unit": "%"},
      {"measurement": "share of animals with T2-lesion volume 51-100 mm^3", "setting": "[5]; week 3, lesion volume class 51-100 mm^3, levosimendan 1 mg/kg/day in drinking water", "value": 0, "unit": "%"},
      {"measurement": "share of animals with T2-lesion volume >200 mm^3", "setting": "[5]; week 3, lesion volume class >200 mm^3, levosimendan 1 mg/kg/day in drinking water", "value": 0, "unit": "%"},
      {"measurement": "share of animals with T2-lesion volume 0 mm^3", "setting": "[5]; week 4, lesion volume class 0 mm^3, levosimendan 1 mg/kg/day in drinking water", "value": 95, "unit": "%"},
      {"measurement": "share of animals with T2-lesion volume 1-50 mm^3", "setting": "[5]; week 4, lesion volume class 1-50 mm^3, levosimendan 1 mg/kg/day in drinking water", "value": 5, "unit": "%"},
      {"measurement": "share of animals with T2-lesion volume 51-100 mm^3", "setting": "[5]; week 4, lesion volume class 51-100 mm^3, levosimendan 1 mg/kg/day in drinking water", "value": 0, "unit": "%"},
      {"measurement": "share of animals with T2-lesion volume >200 mm^3", "setting": "[5]; week 4, lesion volume class >200 mm^3, levosimendan 1 mg/kg/day in drinking water", "value": 0, "unit": "%"},
      {"measurement": "share of animals with T2-lesion volume 0 mm^3", "setting": "[5]; week 5, lesion volume class 0 mm^3, levosimendan 1 mg/kg/day in drinking water", "value": 100, "unit": "%"},
      {"measurement": "share of animals with T2-lesion volume 1-50 mm^3", "setting": "[5]; week 5, lesion volume class 1-50 mm^3, levosimendan 1 mg/kg/day in drinking water", "value": 0, "unit": "%"},
      {"measurement": "share of animals with T2-lesion volume 51-100 mm^3", "setting": "[5]; week 5, lesion volume class 51-100 mm^3, levosimendan 1 mg/kg/day in drinking water", "value": 0, "unit": "%"},
      {"measurement": "share of animals with T2-lesion volume >200 mm^3", "setting": "[5]; week 5, lesion volume class >200 mm^3, levosimendan 1 mg/kg/day in drinking water", "value": 0, "unit": "%"},
      {"measurement": "share of animals with T2-lesion volume 0 mm^3", "setting": "[5]; week 6, lesion volume class 0 mm^3, levosimendan 1 mg/kg/day in drinking water", "value": 100, "unit": "%"},
      {"measurement": "share of animals with T2-lesion volume 1-50 mm^3", "setting": "[5]; week 6, lesion volume class 1-50 mm^3, levosimendan 1 mg/kg/day in drinking water", "value": 0, "unit": "%"},
      {"measurement": "share of animals with T2-lesion volume 51-100 mm^3", "setting": "[5]; week 6, lesion volume class 51-100 mm^3, levosimendan 1 mg/kg/day in drinking water", "value": 0, "unit": "%"},
      {"measurement": "share of animals with T2-lesion volume >200 mm^3", "setting": "[5]; week 6, lesion volume class >200 mm^3, levosimendan 1 mg/kg/day in drinking water", "value": 0, "unit": "%"},
      {"measurement": "share of animals with T2-lesion volume 0 mm^3", "setting": "[5]; week 7, lesion volume class 0 mm^3, levosimendan 1 mg/kg/day in drinking water", "value": 90, "unit": "%"},
      {"measurement": "share of animals with T2-lesion volume 1-50 mm^3", "setting": "[5]; week 7, lesion volume class 1-50 mm^3, levosimendan 1 mg/kg/day in drinking water", "value": 0, "unit": "%"},
      {"measurement": "share of animals with T2-lesion volume 51-100 mm^3", "setting": "[5]; week 7, lesion volume class 51-100 mm^3, levosimendan 1 mg/kg/day in drinking water", "value": 10, "unit": "%"},
      {"measurement": "share of animals with T2-lesion volume >200 mm^3", "setting": "[5]; week 7, lesion volume class >200 mm^3, levosimendan 1 mg/kg/day in drinking water", "value": 0, "unit": "%"},
      {"measurement": "share of animals with T2-lesion volume 0 mm^3", "setting": "[5]; week 8, lesion volume class 0 mm^3, levosimendan 1 mg/kg/day in drinking water", "value": 89, "unit": "%"},
      {"measurement": "share of animals with T2-lesion volume 1-50 mm^3", "setting": "[5]; week 8, lesion volume class 1-50 mm^3, levosimendan 1 mg/kg/day in drinking water", "value": 5, "unit": "%"},
      {"measurement": "share of animals with T2-lesion volume 51-100 mm^3", "setting": "[5]; week 8, lesion volume class 51-100 mm^3, levosimendan 1 mg/kg/day in drinking water", "value": 0, "unit": "%"},
      {"measurement": "share of animals with T2-lesion volume >200 mm^3", "setting": "[5]; week 8, lesion volume class >200 mm^3, levosimendan 1 mg/kg/day in drinking water", "value": 5, "unit": "%"},
      {"measurement": "stroke-associated behavioural deficits observed in FOB testing", "setting": "[6]", "value": "markedly reduce and postpone"}
    ]}
  ]
}
